# PubChem BioAssay (NCI)
#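 All cell lines were grown in 96-well plates and treated with compound for 48 hours. TGI denotes the concentration required for complete inhibition of growth.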
# Tests used:
# Experiment in all cases: NCI-60 cell line screen, 48 h
# [1] = system: SN12C renal
# [2] = system: OVCAR-4 ovarian
# [3] = system: RPMI-8226 leukemia
# [4] = system: OVCAR-3 ovarian
# [5] = system: LOX IMVI melanoma
# [6] = system: SF-268 CNS
# [7] = system: HS 578T breast
# [8] = system: OVCAR-8 ovarian
# [9] = system: COLO 205 colon
# [10] = system: HCT-15 colon
# [11] = system: MALME-3M melanoma
# [12] = system: T-47D breast
# [13] = system: SW-620 colon
# [14] = system: IGROV1 ovarian
# [15] = system: MDA-MB-435
# [16] = system: CAKI-1 renal
# [17] = system: SK-MEL-28 melanoma
# [18] = system: PC-3 prostate
# [19] = system: KM12 colon
# [20] = system: DU-145 prostate
# [21] = system: HCC-2998 colon
# [22] = system: BT-549 breast
# [23] = system: NCI-H226 lung
# [24] = system: ACHN renal
# [25] = system: UACC-257 melanoma
# [26] = system: NCI-H460 lung
# [27] = system: U251 CNS
# [28] = system: A549 NSCLC
# [29] = system: SK-MEL-2 melanoma
# [30] = system: UO-31 renal
# [31] = system: SK-MEL-5 melanoma
# [32] = system: NCI/ADR-RES ovarian
# [33] = system: UACC-62 melanoma
# [34] = system: NCI-H23 lung
# [35] = system: A498 renal
# [36] = system: MOLT-4 leukemia
# [37] = system: OVCAR-5 ovarian
# [38] = system: HCT-116 colon
# [39] = system: SF-295 CNS
# [40] = system: 786-0 renal
# [41] = system: CCRF-CEM leukemia
# [42] = system: HOP-92 NSCLC
# [43] = system: HOP-62 NSCLC
# [44] = system: HT29 colon
# [45] = system: SNB-19 CNS
# [46] = system: TK-10 renal
# [47] = system: RXF 393 renal
# [48] = system: K-562 leukemia
# [49] = system: MDA-MB-231 breast
# [50] = system: SK-OV-3 ovarian
# [51] = system: SNB-75 CNS
# [52] = system: NCI-H522 lung
# [53] = system: MDA-N
# [54] = system: M14 melanoma
# [55] = system: HL-60(TB) leukemia
# [56] = system: SR leukemia
# [57] = system: MCF7 breast
# [58] = system: SF-539 CNS
smiles,measurement,setting,value
CC(=O)Oc1cc2c(n(C)c1=O)-c1ccccc1C2,TGI,[1],> 100 µM
same,TGI,[2],> 100 µM
same,TGI,[3],> 100 µM
same,TGI,[4],> 100 µM
same,TGI,[5],> 100 µM
same,TGI,[6],> 100 µM
same,TGI,[7],> 100 µM
same,TGI,[8],> 100 µM
same,TGI,[9],> 100 µM
same,TGI,[10],> 100 µM
same,TGI,[11],> 100 µM
same,TGI,[12],> 100 µM
same,TGI,[13],65.9 µM
same,TGI,[14],> 100 µM
same,TGI,[15],> 100 µM
same,TGI,[16],78 µM
same,TGI,[17],> 100 µM
same,TGI,[18],> 100 µM
same,TGI,[19],> 100 µM
same,TGI,[20],> 100 µM
same,TGI,[21],> 100 µM
same,TGI,[22],> 100 µM
same,TGI,[23],> 100 µM
same,TGI,[24],> 100 µM
same,TGI,[25],> 100 µM
same,TGI,[26],> 100 µM
same,TGI,[27],> 100 µM
same,TGI,[28],> 100 µM
same,TGI,[29],> 100 µM
same,TGI,[30],> 100 µM
same,TGI,[31],> 100 µM
same,TGI,[32],58.3 µM
same,TGI,[33],> 100 µM
same,TGI,[34],> 100 µM
same,TGI,[35],> 100 µM
same,TGI,[36],> 100 µM
same,TGI,[37],> 100 µM
same,TGI,[38],> 100 µM
same,TGI,[39],> 100 µM
same,TGI,[40],> 100 µM
same,TGI,[41],> 100 µM
same,TGI,[42],> 100 µM
same,TGI,[43],> 100 µM
same,TGI,[44],> 100 µM
same,TGI,[45],> 100 µM
same,TGI,[46],> 100 µM
same,TGI,[47],> 100 µM
same,TGI,[48],> 100 µM
same,TGI,[49],> 100 µM
same,TGI,[50],> 100 µM
same,TGI,[51],> 100 µM
same,TGI,[52],30.7 µM
same,TGI,[53],> 100 µM
same,TGI,[54],> 100 µM
COC(=O)C(Cc1cn(C(C)=O)c2ccccc12)P(=O)(OC)OC (centres undefined),TGI,[1],> 100 µM
same,TGI,[2],> 100 µM
same,TGI,[3],> 100 µM
same,TGI,[4],> 100 µM
same,TGI,[55],> 100 µM
same,TGI,[56],> 100 µM
same,TGI,[6],> 100 µM
same,TGI,[8],> 100 µM
same,TGI,[9],> 100 µM
same,TGI,[10],> 100 µM
same,TGI,[12],> 100 µM
same,TGI,[13],> 100 µM
same,TGI,[14],> 100 µM
same,TGI,[15],> 100 µM
same,TGI,[16],> 100 µM
same,TGI,[57],> 100 µM
same,TGI,[17],> 100 µM
same,TGI,[18],> 100 µM
same,TGI,[58],> 100 µM
same,TGI,[19],> 100 µM
same,TGI,[20],> 100 µM
same,TGI,[21],> 100 µM
same,TGI,[22],> 100 µM
same,TGI,[23],> 100 µM
same,TGI,[24],> 100 µM
same,TGI,[25],> 100 µM
same,TGI,[26],> 100 µM
same,TGI,[27],> 100 µM
same,TGI,[28],> 100 µM
same,TGI,[30],> 100 µM
same,TGI,[31],> 100 µM
same,TGI,[32],> 100 µM
same,TGI,[33],> 100 µM
same,TGI,[34],> 100 µM
same,TGI,[35],> 100 µM
same,TGI,[37],> 100 µM
same,TGI,[38],> 100 µM
same,TGI,[39],> 100 µM
same,TGI,[41],> 100 µM
same,TGI,[42],> 100 µM
same,TGI,[44],> 100 µM
same,TGI,[45],> 100 µM
same,TGI,[46],> 100 µM
same,TGI,[47],> 100 µM
same,TGI,[48],> 100 µM
same,TGI,[49],> 100 µM
same,TGI,[51],> 100 µM
same,TGI,[52],> 100 µM
same,TGI,[53],> 100 µM
same,TGI,[54],> 100 µM
